From US10155802B2, “Locally-active anticoagulants and anti-inflammatory agents” (priority 2011, dated 2018) come the findings set out here.

The target of test [1] is thrombin (Homo sapiens, UniProt P00734). In words: Cleavage of thrombin-sensitive peptides catalyzed by thrombin, followed by HPLC. The test is classed as biochemical. Set-up: rapidly converts prothrombin into the ultimate protease thrombin. The settings on record: 75 μM peptide, 23 nM thrombin, pH 7.6, 37° C.
Test [2] deals with T1, Human α-thrombin (Homo sapiens, UniProt P00734).
T1 construct: Human α-thrombin was purchased from Haemotologic Technologies, Inc., VT, USA; purchased Haemotologic Technologies, Inc., VT, USA
Nature of the test: Inhibition of thrombin-catalyzed hydrolysis of chromogenic substrate S-2366 (inhibition constant Ki). The test is classed as biochemical. The note with it: for Ki: T = 37° C., enzyme kinetics, chromogenic substrate.

Test [3] relates to FeCl3-induced arterial thrombosis (carotid artery). Nature of the test: FeCl3-induced arterial model of thrombosis in rats (time to occlusion). The test is classed as in vivo. The settings on record: rat, single bolus 0.2 mg/kg plus maintenance infusion 0.00433 mg/kg/min. On the procedure:
Male Sprague-Dawley rats (250-310 g; Charles River Laboratories, St-Constant, QC, Canada) were acclimated for at least 3 days prior to the start of the study. Animals were housed in microisolator cages and were kept on a 12-hr light/dark cycle with constant temperature and humidity. Food and water were provided ad libitum. Various anti-thrombotic agents and peptides of this invention were dissolved in saline (0.9% sodium chloride) prior to use.
The FeCl3-induced arterial model of thrombosis in rats was also generated as described by Wang and Xu (Wang 2005) with some modifications (Couture 2011). Briefly, rats were anesthetized with a 2.5% isoflurane/oxygen mixture and placed on a heat source (35-37° C.). An incision was made over the right carotid artery, and a segment of the artery was exposed via blunt dissection. A Doppler flow probe (Model MA1PRB, Transonic System Inc., Ithaca, N.Y., USA) connected to a perivascular flow module (TS420, Transonic System Inc., Ithaca, N.Y., USA) was then attached to the carotid artery to monitor blood flow. Data were collected and analyzed using the MP100 Biopac™ Systems (Biopac Systems, Santa Barbara, Calif., USA), and the AcgKnowledge™ software (Biopac Systems, Santa Barbara, Calif., USA), respectively. Baseline blood flow was recorded for a minimum of 15 minutes until readings stabilized. Aquasonic 100 gel (Parker Laboratories, Inc., Fairfield, N.J., USA) was added to help conductivity and any fluid accumulating at the site of surgery was removed during data sampling without touching the probe. […] One minute after drug administration, a piece of filter paper (Gel Blot Paper, GB003, Whatman, Piscataway, N.J., USA; 7 mm diameter) saturated with 20% FeCl3 (EMD Chemicals Inc., Gibbstown, N.J., USA) was placed on the exposed surface of the carotid artery and incubated for 3.5 minutes. During the application of FeCl3, the neck region was covered with aluminum foil. At the end of the incubation period, the filter paper was removed and the exposed carotid was covered with a saline-soaked gauze. Time to occlusion was defined as the time from the application of FeCl3 until blood flow decreased to zero. […] Preparing and processing each animal took approximately 1 hr and 7 animals were treated each day. Control animals were always included when the other treatments were being administered. For this reason, the number of animals in the control group is higher than that of the treated-groups.
Statistical analysis was conducted using GraphPad™ Prism (GraphPad Software Inc., San Diego Calif., USA). Data were analyzed using one-way ANOVA with post-hoc Bonferroni correction for multiple comparisons. The relationship between thrombus weight and thrombus volume was determined by linear regression. […]

The subject of test [4] is fresh blood withdrawn from rats with venous thrombosis. Nature of the test: Clotting time (aPTT) of fresh blood withdrawn from treated rats. It counts as in vivo. The settings on record: rat, 0.2 mg/kg bolus + 0.00433 mg/kg/min infusion; 20 minutes after administration versus before. How it is done: FIG. 23 illustrates the clotting times (aPTT) determined for fresh blood withdrawn from rats with venous thrombosis at three time points, the first before drug administration and vessel injury, the second at 20 minutes after FeCl3 application and the third 60 minutes following injection of the respective thrombin inhibitors. Clotting times (aPTT) are shown for different rats administered with each thrombin inhibitor, ZIP4 for MH2-wZIP4, ZIP5 for MH2-wZIP5 and T218 for BRI-T218. Dosage levels for every compound were 0.2 mg/kg for the single-bolus injection and 0.00433 mg/kg/min for the maintenance infusion,
Terminal blood samples were analyzed for aPTT within 15 to 30 minutes of collection using a Coag DX Analyzer with aPTT citrate cartridges (IDEXX Laboratories, Westbrook, Me., USA).

The structures appear in SMILES notation. Values joined by “and” are separate entries in the source; they are usually repeats but may differ in a detail not shown here. Equal values may be shown once. “Also recorded” adds a separate entry of the source.

As a reminder, the Ki is the equilibrium dissociation constant of an inhibitor or competing ligand from its target. A lower Ki goes with a stronger hold on the target.

For the compound `CC[C@H](C)[C@H](NC(=O)[C@H](CCC(=O)O)NC(=O)[C@H](CCC(=O)O)NC(=O)[C@H](Cc1ccccc1)NC(=O)[C@H](CC(=O)O)NC(=O)CNC(=O)[C@H](CCC(=O)O)NC(=O)[C@@H](NC(=O)[C@H](Cc1c[nH]c2ccccc12)NC(=O)[C@@H](NC(=O)[C@H](Cc1c[nH]c2ccccc12)NC(=O)[C@@H](NC(=O)[C@H](CCCCN)NC(=O)[C@@H](NC(=O)[C@H](C)NC(=O)[C@H](CC(=O)O)NC(=O)[C@H](CC(=O)O)NC(=O)[C@H](Cc1c[nH]c2ccccc12)NC(=O)[C@@H](NC(=O)[C@H](Cc1c[nH]c2ccccc12)NC(=O)[C@H](CCC(=O)O)NC(=O)CNC(=O)[C@H](CC(=O)O)NC(=O)[C@@H](NC(=O)[C@H](Cc1ccccc1)NC(=O)[C@H](CCCNC(=N)N)NC(=O)[C@@H]1CCCN1C(=O)[C@H](CCCNC(=N)N)NC(=O)[C@@H]1CCCN1C(=O)[C@H](N)Cc1ccccc1)[C@@H](C)O)[C@@H](C)O)[C@@H](C)O)[C@@H](C)O)[C@@H](C)O)[C@@H](C)O)C(=O)N1CCC[C@H]1C(=O)N[C@@H](CCC(=O)O)C(=O)N[C@@H](CCC(=O)O)C(=O)N[C@@H](Cc1ccc(O)cc1)C(=O)N[C@@H](CC(C)C)C(=O)O` [BRI-T208], in test [1], the cleavage by thrombin result is recorded as “significantly more resistant to thrombin cleavage than BRI-T218”. In test [2], the “reduction of Ki as compared to BRI-T207” value is reported as “about 13 fold”; the “reduction of Ki as compared to MH2-wZIP4” value is “approximately 5 fold”; the Ki is ~28 nM and 28 nM.

For the compound `CC[C@H](C)[C@H](NC(=O)[C@H](CCCNC(=N)N)NC(=O)[C@@H]1CCCN1C(=O)[C@H](N)Cc1ccccc1)C(=O)N[C@@H](CCCNC(=N)N)C(=O)N[C@@H](Cc1ccccc1)C(=O)N[C@H](C(=O)N[C@@H](CC(=O)O)C(=O)NCC(=O)N[C@@H](CCC(=O)O)C(=O)N[C@@H](Cc1c[nH]c2ccccc12)C(=O)N[C@H](C(=O)N[C@@H](Cc1c[nH]c2ccccc12)C(=O)N[C@@H](CC(=O)O)C(=O)N[C@@H](CC(=O)O)C(=O)N[C@@H](C)C(=O)N[C@H](C(=O)N[C@@H](CCCCN)C(=O)N[C@H](C(=O)N[C@@H](Cc1c[nH]c2ccccc12)C(=O)N[C@H](C(=O)N[C@@H](Cc1c[nH]c2ccccc12)C(=O)N[C@H](C(=O)N[C@@H](CCC(=O)O)C(=O)NCC(=O)N[C@@H](CC(=O)O)C(=O)N[C@@H](Cc1ccccc1)C(=O)N[C@@H](CCC(=O)O)C(=O)N[C@@H](CCC(=O)O)C(=O)N[C@H](C(=O)N1CCC[C@H]1C(=O)N[C@@H](CCC(=O)O)C(=O)N[C@@H](CCC(=O)O)C(=O)N[C@@H](Cc1ccc(O)cc1)C(=O)N[C@@H](CC(C)C)C(=O)O)[C@@H](C)CC)[C@@H](C)O)[C@@H](C)O)[C@@H](C)O)[C@@H](C)O)[C@@H](C)O)[C@@H](C)O` [BRI-T218], in test [3], the “anti-thrombotic efficacy in arterial model” value is on record as “appears to restore the anti-thrombotic activity; also recorded: increases the efficacy”. Also, the cleavage by thrombin entry in test [1] is on record as “completely converted to the cleavage products within two hours; also recorded: almost completion of the cleavage reaction after 2 hours of incubation”. For the same compound, in test [4], the “clotting time (aPTT), systemic anticoagulant effect” value is reported as “only a slight prolongation of the clotting time (aPTT)”. The Ki in test [2] is ~14 nM and 14 nM.
